Test results from patent publication US10611765B2, “Pyrrolopyrimidine derivatives as Mps1/TTK kinase inhibitors” (Ohio State Innovation Foundation, priority 2014, dated 2020).
Where two headings read alike, the source gives them in different places.

Experiments:
T47D = assay: MTS anti-proliferative assay, T47D; type: cell-based; details: luminal, treatment for 7 days
Protocol: (§1) The anti-proliferative effects and IC50 values of the compounds in the BC cell line panel were determined by MTS assay.
(§2) The cells, except Sk-Br-3, AU565 and BT-474 were maintained in a mixture of Dulbecco's modified Eagle's medium and Ham's F12 medium (1:1) (DMEM/F12) without phenol red supplemented with 5% fetal bovine serum (FBS) and 1× antibiotic-antimycotic (100 U/mL penicillin G sodium, 100 μg/mL streptomycin sulfate and 0.25 μg/mL amphotericin B) and were plated separately in flasks in a humidified incubator (5% CO2: 95% air, 37° C.). The media used for Sk-Br-3, AU565 and BT-474 cell lines was described in (1) Brueggemeier et al., J. Steroid Biochem. Mol. Biol., 2005; 95:129-136; and (2) Diaz-Cruz et al., J. Clin. Endocrinol. Metab., 2005; 90:2563-2570. The media were changed every 2-days. When the cells grew to about 80% confluence, cells were washed twice with calcium- and magnesium-free phosphate-buffered saline (PBS, pH 7.4), and then trypsinized with 0.05% trypsin-5.3 mm EDTA. The trypsinization was stopped by addition of culture medium with 5% FBS. After centrifugation, the dissociated cells were resuspended in the same medium and subcultured into 75-cm^2 culture flasks at a ratio of 1:5 flasks.
(§3) The BC cells were seeded at the density of 1,000 cells per well (100 μL) into 96 well plate in DMEM/F-12 (1:1), supplemented with 5% (v/v) FCS and incubated overnight at 37° C. Test compounds are solubilized in dimethyl sulfoxide (DMSO), diluted in cell culture medium to a range of final assay concentrations of 1 nM to 10 μM, added to cells and incubated for 7 days at 37° C. The medium including the test compound are refreshed at days 3 and 5. The MTS assay are carried out by using the CellTiter 96® AQueous One Solution Cell Proliferation Assay kit following the manufacturer's instruction.

MCF-7 = assay: MTS anti-proliferative assay, MCF-7; type: cell-based; details: MCF-7, luminal A, treatment for 7 days
Protocol: as §1, §2, §3

BT-549 = assay: MTS anti-proliferative assay, BT-549; type: cell-based; details: BT-549, TNBC, basal B, treatment for 7 days
Protocol: as §1, §2, §3

MDA-MB-231 = assay: MTS anti-proliferative assay, MDA-MB-231; type: cell-based; details: MDA-MB-231, TNBC, basal B, treatment for 7 days
Protocol: as §1, §2, §3

CAL-51 = assay: MTS anti-proliferative assay, CAL-51; type: cell-based; details: CAL-51, TNBC, basal, treatment for 7 days
Protocol: as §1, §2, §3

MDA-MB-436 = assay: MTS anti-proliferative assay, MDA-MB-436; type: cell-based; details: MDA-MB-436, TNBC, basal B, treatment for 7 days
Protocol: as §1
(§4) The media were changed every 2-days. When the cells grew to about 80% confluence, cells were washed twice with calcium- and magnesium-free phosphate-buffered saline (PBS, pH 7.4), and then trypsinized with 0.05% trypsin-5.3 mm EDTA. The trypsinization was stopped by addition of culture medium with 5% FBS.
as §3

[1] = biological target: T1, Mps1/TTK kinase (recombinant GST-Mps1) (Homo sapiens, UniProt P33981); assay: Mps1 in vitro kinase assay with Cetn2 substrate; type: biochemical
T1 sequence (P33981 1-857): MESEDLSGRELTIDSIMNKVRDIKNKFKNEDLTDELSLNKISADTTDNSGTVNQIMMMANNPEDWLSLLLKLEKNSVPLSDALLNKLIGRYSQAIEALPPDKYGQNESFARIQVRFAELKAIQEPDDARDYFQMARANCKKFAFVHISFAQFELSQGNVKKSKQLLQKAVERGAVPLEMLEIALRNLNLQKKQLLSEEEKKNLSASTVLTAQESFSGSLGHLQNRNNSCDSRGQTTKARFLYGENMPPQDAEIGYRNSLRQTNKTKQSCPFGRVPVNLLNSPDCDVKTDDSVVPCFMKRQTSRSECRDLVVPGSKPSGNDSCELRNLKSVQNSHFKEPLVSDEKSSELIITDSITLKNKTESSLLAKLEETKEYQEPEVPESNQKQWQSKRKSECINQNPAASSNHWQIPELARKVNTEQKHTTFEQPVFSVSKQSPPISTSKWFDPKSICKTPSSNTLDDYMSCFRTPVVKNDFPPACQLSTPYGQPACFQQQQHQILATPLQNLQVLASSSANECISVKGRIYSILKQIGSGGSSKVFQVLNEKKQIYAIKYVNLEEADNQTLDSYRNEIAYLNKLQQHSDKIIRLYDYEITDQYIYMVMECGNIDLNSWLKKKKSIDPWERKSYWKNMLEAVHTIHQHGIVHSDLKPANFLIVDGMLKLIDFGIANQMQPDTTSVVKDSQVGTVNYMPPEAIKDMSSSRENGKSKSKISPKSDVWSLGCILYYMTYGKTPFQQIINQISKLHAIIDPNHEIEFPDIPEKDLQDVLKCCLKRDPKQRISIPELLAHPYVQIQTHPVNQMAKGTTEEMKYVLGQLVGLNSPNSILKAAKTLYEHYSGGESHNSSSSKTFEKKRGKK
Protocol: To determine the efficacy of the compounds against Mps1/TTK kinase activity, assays were performed as previously described (11) using recombinant Mps1, Cetn2 (specific substrate), and varying concentration of compound.

BT-20 = assay: MTS anti-proliferative assay, BT-20; type: cell-based; details: BT-20, TNBC, basal A, treatment for 7 days
Protocol: as §1, §2, §3

Hs578T = assay: MTS anti-proliferative assay, Hs578T; type: cell-based; details: TNBC, basal B, treatment for 7 days
Protocol: as §1, §2, §3

[2] = test system: panel of breast cancer cell lines; assay: Anti-proliferative assays, panel of BC cell lines (overall statements); type: cell-based; details: in some or all of the cell based assays in the panel
Protocol: This example describes the development of novel small molecule Mps1/TTK inhibitors as targeted therapies for TNBC and other aggressive BC using drug discovery technologies. Using computational modeling, medicinal chemistry, biochemistry and cell culture assays, the inventors have identified novel small molecules as potential Mps1/TTK inhibitors. The compounds were evaluated in anti-proliferative assays of a panel of 15 BC cell lines and further examined for their ability to inhibit a variety of Mps1-dependent biological functions.
as §1, §2, §3

CAMA-1 = assay: MTS anti-proliferative assay, CAMA-1; type: cell-based; details: CAMA-1, luminal, treatment for 7 days
Protocol: as §1, §2, §3

MDA-MB-453 = assay: MTS anti-proliferative assay, MDA-MB-453; type: cell-based; details: MDA-MB-453, luminal A, treatment for 7 days
Protocol: as §1, §4, §3

BT-474 = assay: MTS anti-proliferative assay, BT-474; type: cell-based; details: BT-474, luminal B, treatment for 7 days
Protocol: as §1, §2, §3

Sk-Br-3 = assay: MTS anti-proliferative assay, Sk-Br-3; type: cell-based; details: Sk-Br-3, luminal, treatment for 7 days
Protocol: as §1, §2, §3

HCC1937 = assay: MTS anti-proliferative assay, HCC1937; type: cell-based; details: HCC1937, TNBC, basal, treatment for 7 days
Protocol: as §1, §2, §3

MDA-MB-468 = assay: MTS anti-proliferative assay, MDA-MB-468; type: cell-based; details: MDA-MB-468, TNBC, basal B, treatment for 7 days
Protocol: as §1, §2, §3

AU565 = assay: MTS anti-proliferative assay, AU565; type: cell-based; details: AU565, luminal, treatment for 7 days
Protocol: as §1, §2, §3

Cal-51 cells = assay: Centriole assembly / centrosome amplification assay, Cal-51; type: cell-based; details: Cal-51, at 10 μM
Protocol: (§5) For these cell biology assays, cells were plated onto poly-L-lysine coated coverslips in 24 well dishes using the medium and growth conditions described above, but using medium containing phenol red. At 24 hours after plating, compounds (or the equivalent amount of DMSO) were added to individual wells at various concentrations. Cells were incubated for 24 hours at 37° C. BrdU was added during the last 4 hours of the incubation, after which cells were fixed in pre-chilled methanol at −20 OC for 10 minutes, stained with centrosome markers, then treated with acid to denature chromosomal DNA prior to staining for BrdU. To assess centriole biogenesis, centriole number was determined for triplicate samples in cells that had entered S-phase as judged by incorporation of BrdU. Primary antibodies used were mouse anti-γTubulin (pericentriolar material) and rabbit anti-Centrin 2 (centrioles). Secondary antibodies used were Alexa594-conjugated donkey anti-mouse and Alexa488-conjugated donkey anti-rabbit.
For centriole assembly assays, Cal-51 and MDA-MB-468 cells were treated with candidate compounds prior to a short pulse of BrdU. Because the centriole pair is replicated at the G1/S transition, compounds that block centrosome assembly will lead to an increased number of BrdU-positive cells with two centrioles. In addition, like many breast cancer cells Cal-51 and MDA-MB-468 are capable of centrosome amplification, and compounds that block this centrosome amplification should reduce the number of BrdU-positive cells with more than four centrioles.

[3] = test system: S-phase (BrdU-positive) cells; assay: Centriole number in S-phase cells (preliminary investigations); type: cell-based; details: drug for 20 hours, then 4 hour pulse of BrdU
Protocol: as §5
For centriole assembly assays, Cal-51 and MDA-MB-468 cells were treated with candidate compounds prior to a short pulse of BrdU. Because the centriole pair is replicated at the G1/S transition, compounds that block centrosome assembly will lead to an increased number of BrdU-positive cells with two centrioles. […]

[4] = additional investigations (text to Table 2), read-out: IC50, in vitro kinase activity of Mps1
[5] = in vitro kinase assay with Cetn2 substrate, Table 2, read-out: IC50 w/Cetn 2

Compound: COc1ccccc1Nc1nc(Nc2ccccc2S(=O)(=O)C(C)C)c2cc[nH]c2n1 [Compound 10, N4-(2-(isopropylsulfonyl)phenyl)-N2-(2-methoxyphenyl)-7H-pyrrolo-[2,3-d]pyrimidine-2,4-diamine]
- IC50 (T47D; Homo sapiens, 168 h): 340 nM
- IC50 (MCF-7; Homo sapiens, MCF7, 168 h): 350 nM
- IC50 (BT-549; Homo sapiens, 168 h): 1600 nM
- IC50 (MDA-MB-231; Homo sapiens, 168 h): 450 nM
- IC50 (CAL-51; Homo sapiens, 168 h): 1500 nM
- IC50 (MDA-MB-436; Homo sapiens, 168 h): 1290 nM
- IC50 [1, 4]: 3400 nM
- IC50 [1, 5]: 3420 nM
- IC50 (BT-20; Homo sapiens, 168 h): 50 nM
- IC50 (Hs578T; Homo sapiens, Hs-578T, 168 h): > 10000 nM
- potency as compared to Mps1-IN-1 [2]: significantly more potent
- IC50 (CAMA-1; Homo sapiens, 168 h): 1550 nM
- IC50 (MDA-MB-453; Homo sapiens, 168 h): > 10000 nM
- IC50 (BT-474; Homo sapiens, 168 h): 720 nM
- IC50 (Sk-Br-3; Homo sapiens, 168 h): 970 nM
- IC50 (HCC1937; Homo sapiens, 168 h): 990 nM
- IC50 (MDA-MB-468; Homo sapiens, 168 h): 1860 nM
- IC50 (AU565; Homo sapiens, 168 h): > 10000 nM

Compound: COc1cc(N2CCOCC2)ccc1Nc1nc(Nc2ccccc2S(=O)(=O)C(C)C)c2cc[nH]c2n1 [Compound 11, N4-(2-(isopropylsulfonyl)phenyl)-N2-(2-methoxy-4-morpholinophenyl)-7H-pyrrolo[2,3-d]pyrimidine-2,4-diamine]
- IC50 (MCF-7; Homo sapiens, MCF7, 168 h): 400 nM
- IC50 (BT-549; Homo sapiens, 168 h): 1310 nM
- IC50 (MDA-MB-231; Homo sapiens, 168 h): > 10000 nM
- IC50 (CAL-51; Homo sapiens, 168 h): 300 nM
- IC50 (MDA-MB-436; Homo sapiens, 168 h): 1230 nM
- IC50 [1, 4]: 13100 nM
- IC50 [1, 5]: 13100 nM
- IC50 (BT-20; Homo sapiens, 168 h): 1500 nM
- IC50 (Hs578T; Homo sapiens, Hs-578T, 168 h): > 10000 nM
- potency as compared to Mps1-IN-1 [2]: significantly more potent
- IC50 (CAMA-1; Homo sapiens, 168 h): 780 nM
- IC50 (MDA-MB-453; Homo sapiens, 168 h): > 10000 nM
- IC50 (BT-474; Homo sapiens, 168 h): 330 nM
- IC50 (Sk-Br-3; Homo sapiens, 168 h): 370 nM
- IC50 (HCC1937; Homo sapiens, 168 h): 1100 nM
- IC50 (MDA-MB-468; Homo sapiens, 168 h): 360 nM

Compound: COc1cc(N2CCC(O)CC2)ccc1Nc1cc(Nc2ccccc2S(=O)(=O)C(C)C)c2cc[nH]c2n1 [Mps1-IN-1, reference compound]
- IC50 (T47D): > 10000 nM
- IC50 (MCF-7): > 10000 nM
- IC50 (BT-549): 2440 nM
- effect on centriole assembly (Cal-51 cells): little effect
- effect on centrosome amplification (Cal-51 cells): little effect
- IC50 (MDA-MB-231): > 10000 nM
- IC50 (CAL-51): 1840 nM
- IC50 (MDA-MB-436): > 10000 nM
- IC50 (BT-20): > 10000 nM
- IC50 (Hs578T): > 10000 nM
- IC50 (CAMA-1): > 10000 nM
- effect on centriole assembly [3]: little effect
- IC50 (MDA-MB-453): > 10000 nM
- IC50 (BT-474): > 10000 nM
- IC50 (Sk-Br-3): > 10000 nM
- IC50 (HCC1937): > 10000 nM
- IC50 (MDA-MB-468): 1850 nM
- IC50 (AU565): > 10000 nM

Compound: AZ3146
- effect on centriole assembly (Cal-51 cells): little effect
- effect on centrosome amplification (Cal-51 cells): little effect
- effect on centriole assembly [3]: little effect
